Results taken from the SangsterLogP compilation.
One block for each compound: values may come before it. Where a SMILES comes first, the peptide text is derived from it.

Assays:
[1] = method code RP-TLC, from DOI: 10.1016/s0021-9673(03)00617-4, PMID: 12830921
[2] = method code SF-RC, from DOI: 10.1002/jlcr.1076; conditions: pH 7.4
[3] = method code SF-GR, from DOI: 10.1016/s0022-3565(25)32611-x, PMID: 7230009
[4] = method code SF-AS, from PMID: 1586384
[5] = method code SF-AS, from DOI: 10.1016/s0022-3565(25)38749-5, PMID: 8182532; conditions: pH 7.4
[6] = method code SF-AS, from DOI: 10.1016/j.bmc.2007.10.035, PMID: 18029186; conditions: pH 7.4
[7] = method code SF-RC, from DOI: 10.1016/0361-9230(85)90153-4, PMID: 2413968
[8] = method code SF-RC, from DOI: 10.1016/j.nucmedbio.2016.01.003, PMID: 27067043; conditions: pH 7.4
[9] = method code SF-AS, from DOI: 10.1248/bpb1978.7.120, PMID: 6427444
[10] = method code SF-AS, from DOI: 10.1016/s0014-827x(98)00024-x, PMID: 9679281
[11] = method code SF-RC, from DOI: 10.1016/j.nucmedbio.2005.06.001, PMID: 16253804; conditions: pH 7.4
[12] = not given; remark: listed apart in the source
[13] = not given; remark: listed apart in the source
[14] = method code SF-AS, from DOI: 10.1016/s0022-5347(24)07568-2, PMID: 4149453; conditions: pH 7.5
[15] = not given; remark: listed apart in the source
[16] = not given; remark: listed apart in the source
[17] = method code SF-RC, from DOI: 10.1016/j.nucmedbio.2003.12.003, PMID: 15093819; conditions: pH 7.0
[18] = method code SF-AS, from DOI: 10.1016/j.arabjc.2011.11.013
[19] = method code SF-EN, from DOI: 10.1016/s0022-2275(20)42614-8, PMID: 2280184; conditions: pH 1.0
[20] = method code SF, from DOI: 10.1002/ps.2780350215
[21] = method code SF-HPLC, from DOI: 10.1002/jps.2600800905, PMID: 1800703
[22] = method code RP-HPLC, from DOI: 10.1021/jm00011a007, PMID: 7540207
[23] = method code SF, from DOI: 10.1016/j.nucmedbio.2007.12.009, PMID: 18355686; conditions: pH 7.4
[24] = method code SF-HPLC, from DOI: 10.1016/0378-5173(89)90313-x; conditions: pH 7.4
[25] = method code SF-HPLC, from DOI: 10.1016/j.bmc.2009.01.040, PMID: 19208447; conditions: pH 7.0
[26] = method code SF-RC, from DOI: 10.1016/j.bmc.2006.11.022, PMID: 17293116; conditions: pH 7.4

logP [1]: 3.89
Compound: CCC12C=C(C(=O)OCCCO)n3c4c(c5ccccc53)CCN(CCC1)C42 (stereo not drawn)

logD [2]: 1.8
Compound: COc1ccc2c(c1)C1(C)CCC3c4cc(I)c(O)cc4CCC3C1C2 (stereo not drawn)

Compound: CC1(C)[C@@H](O)C[C@H]2[C@](C)(O)[C@@H]3CC[C@@H]4[C@@H](O)[C@@]3(C[C@@H](O)[C@@]21O)C[C@@]4(C)O
logP [3]: 0.27

logP [4]: 0.02
Compound: CC(=O)OCOC(=O)c1cn2c3c(c(N4CCN(C)CC4)c(F)cc3c1=O)OCC2C (stereo not drawn)

logP: 3.52
Compound: CC(C)NCC(COc1cccc2ccccc12)OC(=O)C(C)C (stereo not drawn)

logP [4]: 0.26
Compound: CC(=O)OC(C)OC(=O)c1cn2c3c(c(N4CCN(C)CC4)c(F)cc3c1=O)OCC2C (stereo not drawn)

logD [5]: 5.2
Compound: CCCCCCCCCCOc1ccc(C(=O)Nc2cc(C(=O)NCCCC)ccc2SC)cc1

logD [6]: -1.29
Compound: CC(=O)NC1C(OCCN(C)C(=O)Cn2ccnc2[N+](=O)[O-])OC(COC(C)=O)C(OC(C)=O)C1OC(C)=O (stereo not drawn)

Compound: CC(C)C[C@H](NC(=O)[C@@H]1CCCN1C(=O)[C@@H](N)Cc1ccc(O)cc1)C(=O)NCC(N)=O (H-YPLG-NH2)
logP [7]: 0.06

logD [8]: 3
Compound: C=CC(=O)NCCCCC(NC(=O)OCc1ccccc1)C(=O)N1CCN(c2ccccc2Cl)CC1 (stereo not drawn)

Compound: CO[C@@]12[C@H](COC(N)=O)C3=C(C(=O)C(C)=C(N)C3=O)N1C[C@H]1[C@@H]2N1Cc1ccccc1 (stereo partly drawn)
logP [9]: 1.59

logP [10]: 3.78
Compound: Cc1[nH]c2ccccc2c1Cc1nnc(Nc2cccc3ccccc23)s1

logD [11]: 2.05
Compound: CNc1ccc(C=Cc2ccc(OCCOCCOCCOCCF)cc2)cc1

logP [12]: 4.34
Compound: CC(=O)[C@@]1(C)CC[C@H]2[C@@H]3CCC4=CC(=O)CCC4=C3CC[C@@]21C

logD [11]: 2.28
Compound: CNc1ccc(C=Cc2ccc(OCCOCCOCCOCCOCCF)cc2)cc1

logP [13]: 3.11
Compound: COC(=O)CN1CCN(C(COCc2cc(C(F)(F)F)cc(C(F)(F)F)c2)c2ccccc2)CC1 (stereo not drawn)

logD [14]: 0.98
Compound: CCOC(=O)CC[C@H](NC(=O)c1ccc(N(C)Cc2cnc3nc(N)nc(N)c3n2)cc1)C(=O)OCC

logP [15]: 4.66
Compound: CC1CC2C3CCC4=CC(=O)CCC4C3CCC2(C)C1C(=O)CF (stereo not drawn)

logD [2]: 2.5
Compound: COc1ccc2c(c1)C1(C)CCC3c4ccc(O)c(I)c4CCC3C1C2 (stereo not drawn)

logP [16]: 3.3
Compound: COc1cc2c(Nc3ccc(Cl)cc3F)ncnc2cc1OCCCN1CCN(C)CC1

logP: 3.68
Compound: CC(C)NCC(COc1cccc2ccccc12)OC(=O)C1CC1 (stereo not drawn)

logD [17]: 2.15
Compound: O=C(NCCc1ccc(S(=O)(=O)NC2CCCCC2)cc1)c1cc(I)ccc1OCCF

logP [9]: 1.89
Compound: CO[C@@]12[C@H](COC(N)=O)C3=C(C(=O)C(C)=C(N)C3=O)N1C[C@H]1[C@@H]2N1C(=O)c1ccccc1

Compound: O=C(CNc1ccc([N+](=O)[O-])cc1)Nc1ccc(Cl)cc1C(=O)c1ccccc1
logP [18]: 4.68

logP [12]: 4.69
Compound: CC#CC1(O)CC[C@H]2[C@@H]3CCC4=CC(=O)CCC4=C3C(c3ccc(N(C)C)cc3)C[C@@]21C (stereo partly drawn)

logD [19]: 2.8
Compound: C[C@H](CCC(=O)O)[C@H]1CC[C@H]2[C@@H]3C[C@H](O)[C@@H]4C[C@H](O)CC[C@]4(C)[C@H]3C[C@H](O)[C@]12C

logP [20]: 2.52
Compound: CCCCn1c(C)cc(=O)c(C(=O)Nc2c(CC)cccc2CC)c1C

logP [15]: 4.02
Compound: CC1CC2C3CCC4=CC(=O)CCC4C3CCC2(C)C1C(=O)CO (stereo not drawn)

logD ([21]; pH 7.0): 3.85
Compound: CC[C@H](C)C(=O)O[C@H]1CCC=C2C=C[C@H](C)[C@H](CC[C@@H]3C[C@@H](O)CC(=O)O3)[C@H]21

logP [13]: 3.2
Compound: CN1CCN(C(COCc2cc(C(F)(F)F)cc(C(F)(F)F)c2)c2ccccc2)CC1 (stereo not drawn)

logD [17]: 2.09
Compound: O=C(NCCc1ccc(S(=O)(=O)NC2CCCCC2)cc1)c1cc(Cl)ccc1OCCF

logP [22]: 4.01
Compound: CCCCCN=c1ccn(Cc2cccc3ccccc23)c2cc(Cl)ccc12

logD [6]: -0.98
Compound: CC(=O)OCC1OC(OCCN(C)C(=O)n2ccnc2[N+](=O)[O-])C(OC(C)=O)C(OC(C)=O)C1OC(C)=O (stereo not drawn)

logD ([21]; pH 2.0): 4.47
Compound: CCC(C)(C)C(=O)O[C@H]1C[C@@H](C)C=C2C=C[C@H](C)[C@H](CC[C@@H](O)C[C@@H](O)CC(=O)O)[C@H]21 (relative stereo)

logD [14]: 1.69
Compound: COC(=O)CC[C@H](NC(=O)c1cc(Cl)c(N(C)Cc2cnc3nc(N)nc(N)c3n2)c(Cl)c1)C(=O)OC

logD [23]: 4
Compound: CCC(C)N(C)C(=O)c1cc2ccccc2c(-c2ccccc2Cl)n1 (stereo not drawn)

Compound: CN1C=CCC(C(=O)NC2CCC(OC(=O)CCCc3ccc(N(CCCl)CCCl)cc3)CC2)=C1 (stereo not drawn)
logD [24]: 2.85

logP [16]: 3.6
Compound: COc1cc2c(Nc3ccc(Cl)cc3F)ncnc2cc1OCCCN1CCOCC1

logD [19]: 1.9
Compound: CC(CCC(=O)NCC(=O)O)C1CCC2C3C(O)CC4CC(O)CCC4(C)C3CC(C)(O)C12 (stereo not drawn)

logP [7]: -2.15
Compound: NC(=O)CC[C@@H]1NC(=O)[C@H](Cc2ccccc2)NC(=O)[C@H](Cc2ccc(O)cc2)NC(=O)[C@@H](N)CSSC[C@@H](C(=O)N2CCC[C@H]2C(=O)N[C@@H](CCCN=C(N)N)C(=O)NCC(N)=O)NC(=O)[C@H](CC(N)=O)NC1=O

logD [5]: 4.8
Compound: CC(C)CCC(=O)CC1c2ccccc2C(=O)N1c1ccc2ccc(Cl)nc2n1 (stereo not drawn)

logD [25]: 0.78
Compound: CC(C(=O)OCC(O)C(O)C(O)C(O)CO)c1cccc(C(=O)c2ccccc2)c1 (stereo not drawn)

logP [10]: 3.12
Compound: S=c1[nH]nc(Cn2ccc3ccccc32)n1-c1cccc2ccccc12

logP [1]: 3.62
Compound: CCC12C=C(C(=O)OCCO)n3c4c(c5ccccc53)CCN(CCC1)C42 (stereo not drawn)

logP [20]: 3.63
Compound: CCc1cccc(CC)c1NC(=O)c1c(C)n(CCc2ccccc2)c(C)c(Br)c1=O

logD [23]: 2.99
Compound: CC(=O)N(Cc1ccccc1OCCF)c1cnccc1Oc1ccccc1

logD [26]: 2.48
Compound: CNc1ccc(-c2nc3ccc(-c4nc5ccc(F)cc5s4)cc3s2)cc1

logP [3]: -0.57
Compound: CC1(C)[C@H]2O[C@H]2[C@@H]2[C@]1(O)[C@H](O)[C@@H](O)C13C[C@@](C)(O)[C@@H](CC[C@@]1(O)[C@@]2(C)O)[C@@H]3O

Compound: Nc1ccc(S(=O)(=O)NCC(=O)Nc2ccc(Cl)cc2C(=O)c2ccccc2)cc1
logP [18]: 3.24

logD [25]: 1.26
Compound: CC(C(=O)OCC(O)C(O)C(O)C(O)C=O)c1cccc(C(=O)c2ccccc2)c1 (stereo not drawn)

logD [8]: 2.67
Compound: C=CC(=O)Nc1ccc(S(=O)(=O)N2CCN(C(=O)C34CC5CC(CC(C5)C3)C4)CC2)cc1

Compound: CN1C=CCC(C(=O)NCCOC(=O)CCCc2ccc(N(CCCl)CCCl)cc2)=C1
logD [24]: 2.16

logD [26]: 1.56
Compound: COc1ccc2nc(-c3ccc4nc(-c5ccc(N)cc5)sc4c3)sc2c1
